Assay results as given in US6861405B2, “Compositions and methods relating to glucose metabolism, weight control, and food intake” (priority 2001, dated 2005).
“Also recorded” adds a separate entry of the source.

Legend:
Kv1.3 = Kv1.3 (Homo sapiens, UniProt P22001); conditions: cited from earlier work; for inhibition of Kv1.3 activity: therapeutic levels
[1] = therapeutic dosages; cited from earlier work
Kv1.2 = Kv1.2 (Homo sapiens, UniProt P16389); conditions: cited from earlier work
ob/ob mice [2] = test: Insulin sensitivity (blood glucose after IP human insulin) in non-fasting ob/ob mice given toxin; type: in vivo, mouse; conditions: for insulin sensitivity: non-fasting ob/ob mice, toxin IP 30 minutes before insulin
Protocol: Non-fasting ob/ob (obese) mice (n=5), were given margatoxin 30 minutes prior to study as described elsewhere herein. Age-matched control ob/ob mice were sham injected with PBS. Both groups were given human insulin and blood glucose levels were monitored as described previously.
Non-fasting ob/ob (obese) mice (n=5), were given kaliotoxin (Alomone, Israel) 30 minutes prior to study as described elsewhere herein. Age-matched control ob/ob mice were sham injected with PBS. Both groups were given human insulin and blood glucose levels were monitored as described previously.

Kv1.1 = Kv1.1 (Homo sapiens, UniProt Q09470); conditions: cited from earlier work
Sequence of Kv1.1 (Q09470 whole entry): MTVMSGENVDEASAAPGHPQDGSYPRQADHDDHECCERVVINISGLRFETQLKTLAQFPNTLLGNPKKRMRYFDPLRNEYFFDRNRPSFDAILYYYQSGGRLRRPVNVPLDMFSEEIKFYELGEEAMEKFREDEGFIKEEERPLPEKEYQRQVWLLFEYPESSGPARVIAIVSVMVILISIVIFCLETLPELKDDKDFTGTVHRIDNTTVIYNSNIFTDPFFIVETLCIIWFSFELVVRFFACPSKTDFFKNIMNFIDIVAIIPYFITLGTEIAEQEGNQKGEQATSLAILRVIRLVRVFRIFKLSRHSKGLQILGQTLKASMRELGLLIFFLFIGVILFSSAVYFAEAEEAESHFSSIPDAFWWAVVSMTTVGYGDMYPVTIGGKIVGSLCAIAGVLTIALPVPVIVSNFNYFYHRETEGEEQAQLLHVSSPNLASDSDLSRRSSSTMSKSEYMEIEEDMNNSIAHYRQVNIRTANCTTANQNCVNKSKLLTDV

ob/ob mice [3] = test: Long-term pharmacological inhibition of Kv1.3 in ob/ob mice: food consumption and body weight; type: in vivo, mouse
Protocol: Long-term pharmacological inhibition of Kv1.3: Ob/ob mice were injected intraperitoneally with margatoxin or PBS (n=5 for each group) on days 0, 5, and 16 as described herein. Food consumption was monitored for 30 days, and weights were measured at the end of 30 days.

C57BL/6 mice = test: Insulin sensitivity (blood glucose after IP human insulin) in wild type C57BL/6 mice given margatoxin; type: in vivo, mouse
Protocol: Plasma insulin levels and insulin sensitivity: Seven-week old C57BL6/6J male mice (n=5) were given 0.1 μg/gram body weight margatoxin 20 hours prior to study via IP injection. Controls (n=5) were sham injected with phosphate buffered saline (PBS). Two hours prior to study a second injection of margatoxin was administered to the treated experimental group. At t=0, both groups received human insulin as described previously. Blood glucose measurements were performed at the times indicated.

db/db mice = test: Insulin sensitivity (blood glucose after IP human insulin) in fasting db/db mice given margatoxin; type: in vivo, mouse
Protocol: Fasting db/db (diabetic) mice (n=5), were given margatoxin 30 minutes prior to study as described elsewhere herein. Age-matched control db/db mice were sham injected with PBS. Both groups were given human insulin and blood glucose levels were monitored as described previously.

L6 cells = test: D-glucose uptake in L6 cells; type: cell-based, rat
Protocol: D-glucose uptake in L6 cells: L6 cells were maintained in Dulbecco's Modified Eagle's Medium (DMEM) containing 10% fetal bovine serum (FBS) and 1% penicillin-streptomycin in T-75 flasks at 37° C. and 5% CO2. To promote fusion into myotubules and quiescence, L6 cells were seeded onto 10 cm^2 flasks at a density of 3000 cells/cm^2 in DMEM containing 2% FBS. Myotube formation was determined by the percentage of nuclei in multinucleated cells. Glucose uptake assays were performed when 80-90% of the myoblasts fused into myotubes. Cells were serum starved for 3 hours in DMEM containing 0.2% bovine serum albumin, washed twice in PBS with 0.1 mM CaCl2, 0.1 MgCl2, 10 mM HEPES, pH 7.4. […] 2-deoxy-(^3H)D-glucose (1 μCi/ml, 10 μM/liter) uptake was measured in triplicate over a 10 minute period. The reaction was terminated by washing with ice-cold PBS. Non-specific uptake was determined by adding 10 mM phloretin and was subtracted from total uptake. Cells were lysed in 0.1 N KOH, and glucose uptake was measured by liquid scintillation (Packard BioScience, Meriden Conn.). […] was measured by Bradford Assay.

Sequence of Kv1.3 (P22001 whole entry): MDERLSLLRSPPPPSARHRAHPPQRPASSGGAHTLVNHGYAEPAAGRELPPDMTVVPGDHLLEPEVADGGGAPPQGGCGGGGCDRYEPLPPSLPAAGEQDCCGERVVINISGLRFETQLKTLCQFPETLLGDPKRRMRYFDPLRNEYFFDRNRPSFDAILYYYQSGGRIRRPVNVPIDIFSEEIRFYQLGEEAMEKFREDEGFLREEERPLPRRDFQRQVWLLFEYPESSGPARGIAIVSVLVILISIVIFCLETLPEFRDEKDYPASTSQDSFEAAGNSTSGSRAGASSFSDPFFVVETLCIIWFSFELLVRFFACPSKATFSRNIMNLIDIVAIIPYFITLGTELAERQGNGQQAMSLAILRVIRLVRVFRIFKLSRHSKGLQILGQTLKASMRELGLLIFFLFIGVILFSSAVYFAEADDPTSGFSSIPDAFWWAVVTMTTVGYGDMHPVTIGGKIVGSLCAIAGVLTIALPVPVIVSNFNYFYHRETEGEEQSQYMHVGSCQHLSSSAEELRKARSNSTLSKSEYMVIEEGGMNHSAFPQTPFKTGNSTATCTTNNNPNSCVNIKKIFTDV
Sequence of Kv1.2 (P16389 whole entry): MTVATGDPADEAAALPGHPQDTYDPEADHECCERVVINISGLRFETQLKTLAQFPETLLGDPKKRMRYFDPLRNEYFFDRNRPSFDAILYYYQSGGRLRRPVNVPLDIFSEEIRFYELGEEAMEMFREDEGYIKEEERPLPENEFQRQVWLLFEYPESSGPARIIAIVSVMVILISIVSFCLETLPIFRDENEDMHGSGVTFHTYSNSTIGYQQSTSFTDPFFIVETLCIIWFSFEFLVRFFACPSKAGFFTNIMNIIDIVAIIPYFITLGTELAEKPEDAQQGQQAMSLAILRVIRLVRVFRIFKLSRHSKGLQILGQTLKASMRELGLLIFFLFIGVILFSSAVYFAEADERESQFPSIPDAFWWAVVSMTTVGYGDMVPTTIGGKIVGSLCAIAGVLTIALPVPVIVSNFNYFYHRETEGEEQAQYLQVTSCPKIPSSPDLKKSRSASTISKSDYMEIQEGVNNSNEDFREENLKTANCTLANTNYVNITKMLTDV

Molecule: CNCCC(Oc1ccc(C(F)(F)F)cc1)c1ccccc1 (stereo not drawn) [fluxetine]
- inhibition of Kv1.3 activity (Kv1.3): inhibit Kv1.3 activity
- insulin sensitivity [1]: increase insulin sensitivity

Molecule: COc1ccc(CCN(C)CCCC(C#N)(c2ccc(OC)c(OC)c2)C(C)C)cc1OC (stereo not drawn) [verapamil]
- inhibition of Kv1.3 activity (Kv1.3): inhibit Kv1.3 activity
- insulin sensitivity [1]: increase insulin sensitivity

Molecule: kaliotoxin
- IC50 (Kv1.3): 0.6 nM
- inhibition of Kv1.2 (Kv1.2): but not Kv1.2
- blood glucose, toxin and insulin vs insulin only (ob/ob mice [2]; animals treated with kaliotoxin and insulin): significantly lower blood glucose
- insulin sensitivity (ob/ob mice [2]; vs PBS): significantly increased insulin sensitivity
- IC50 (Kv1.1): 40 nM

Molecule: margatoxin (TIINVKCTSPKQCLPPCKAQFGQSAGAKCMNGKCKCYPH)
- body weight vs controls (ob/ob mice [3]; ob/ob mice treated long term with margatoxin, IP days 0, 5, 16): weighed significantly less than controls
- body weight after margatoxin treatment ceased at day 16 (ob/ob mice [3]; ob/ob mice, weights assessed to day 36): began to gain weight thereafter
- inhibition of Kv1.3 (Kv1.3): fairly specific and potent inhibitor of Kv1.3
- insulin sensitivity (C57BL/6 mice; C57BL/6 mice, 0.1 μg/gram margatoxin IP, vs sham (PBS) injected controls): increased insulin sensitivity
- fasting blood glucose (C57BL/6 mice; wild type C57BL/6 mice, margatoxin injection prior to study, vs PBS): lower fasting blood glucose
- blood glucose in response to insulin (C57BL/6 mice; wild type C57BL/6 mice, toxin-treated vs PBS): significantly lower blood glucose in response to insulin
- fall in blood glucose of mice receiving insulin (db/db mice; db/db mice, margatoxin and insulin vs PBS and insulin): significantly greater fall in blood glucose
- time at which difference in glucose levels was evident (db/db mice; db/db mice, margatoxin vs PBS): ≤ 30 min
- time for which difference in glucose levels persisted (db/db mice; db/db mice, margatoxin vs PBS): up to 4.5 hours
- sensitivity to insulin (db/db mice; fasting db/db mice, margatoxin IP 30 minutes before insulin, vs PBS): significant increase in sensitivity to insulin
- inhibition of Kv1.2 (Kv1.2): also blocks Kv1.2
- insulin sensitivity (ob/ob mice [2]; vs PBS): significantly increased insulin sensitivity; also recorded: significantly more sensitive to insulin
- time after insulin at which difference in glucose level was evident (ob/ob mice [2]; ob/ob mice, margatoxin vs PBS): ≤ 30 min
- time for which difference in glucose level persisted (ob/ob mice [2]; ob/ob mice, margatoxin vs PBS): at least 3 hours
- fall in blood glucose in response to insulin administration, greater than in control mice (ob/ob mice [2]; ob/ob mice, single injection of margatoxin, vs PBS): 50%
- glucose uptake in L6 cells, margatoxin together with insulin (L6 cells; 200 nM insulin and 250 nM margatoxin, vs either alone or neither): significantly increased glucose uptake; also recorded: additive to that of insulin
- glucose uptake in L6 cells (L6 cells; 2-deoxy-D-glucose, phloretin-sensitive uptake, 0.2-250 nM margatoxin): increases uptake of glucose in L6 cells in a dose dependent manner; also recorded: significant increase in phloretin-sensitive glucose uptake
- EC50 (L6 cells; L6 cells, read-out: concentration necessary for 1/2 maximal increase in glucose uptake): 53 nM
